The results in this text go back to ChEMBL document CHEMBL5634096, “Design, synthesis and bioevaluation of PI3Kα-selective inhibitors as potential colorectal cancer drugs” (Eur J Med Chem, 2023).

Data set [1] in a line: Volume of distribution in Sprague-Dawley rat at 5 mg/kg, iv measured upto 24 hrs by LC-MS analysis. Particulars: in vivo. The data set is classed as ADME, organism-based.
The target in data set [2] is Receptor-type tyrosine-protein kinase FLT3 (Homo sapiens) (UniProt P36888). Nature of the data set: Inhibition of human FLT3 at 1 uM.
Data set [3] deals with Serine/threonine-protein kinase mTOR (Homo sapiens, UniProt P42345). The data set can be described thus: Inhibition of mTOR (unknown origin) by lance ultra assay.
The target of data set [4] is Phosphatidylinositol 4,5-bisphosphate 3-kinase catalytic subunit alpha isoform (Homo sapiens, UniProt P42336). The data set can be described thus: Inhibition of PI3Kalpha (unknown origin) by ADP-Glo luminescent kinase assay. A general note: In ADP-Glo the light output rises with the ADP produced.
Data set [5] in a line: Cytotoxicity against human MCF-10A cells assessed as reduction in cell viability incubated for 24 to 48 hrs by CCK-8 assay. In kind it is toxicity, cell-based. Background: Tetrazolium dyes change colour on reduction, which living cells bring about.
Another data set has as its system HCT-116. The data set can be described thus: Induction of cell cycle arrest at G1/G0 phase in human HCT-116 cells assessed as decrease in cyclinE1 expression incubated for 48 hrs by Western blotting analysis. In kind it is functional, cell-based. The following applies: dose 3-12 µM.

Active and inactive are the calls of the source. The calls are words filed in the database; no cut-off is given here.

Chain of Phosphatidylinositol 4,5-bisphosphate 3-kinase catalytic subunit alpha isoform (P42336 whole entry, canonical isoform): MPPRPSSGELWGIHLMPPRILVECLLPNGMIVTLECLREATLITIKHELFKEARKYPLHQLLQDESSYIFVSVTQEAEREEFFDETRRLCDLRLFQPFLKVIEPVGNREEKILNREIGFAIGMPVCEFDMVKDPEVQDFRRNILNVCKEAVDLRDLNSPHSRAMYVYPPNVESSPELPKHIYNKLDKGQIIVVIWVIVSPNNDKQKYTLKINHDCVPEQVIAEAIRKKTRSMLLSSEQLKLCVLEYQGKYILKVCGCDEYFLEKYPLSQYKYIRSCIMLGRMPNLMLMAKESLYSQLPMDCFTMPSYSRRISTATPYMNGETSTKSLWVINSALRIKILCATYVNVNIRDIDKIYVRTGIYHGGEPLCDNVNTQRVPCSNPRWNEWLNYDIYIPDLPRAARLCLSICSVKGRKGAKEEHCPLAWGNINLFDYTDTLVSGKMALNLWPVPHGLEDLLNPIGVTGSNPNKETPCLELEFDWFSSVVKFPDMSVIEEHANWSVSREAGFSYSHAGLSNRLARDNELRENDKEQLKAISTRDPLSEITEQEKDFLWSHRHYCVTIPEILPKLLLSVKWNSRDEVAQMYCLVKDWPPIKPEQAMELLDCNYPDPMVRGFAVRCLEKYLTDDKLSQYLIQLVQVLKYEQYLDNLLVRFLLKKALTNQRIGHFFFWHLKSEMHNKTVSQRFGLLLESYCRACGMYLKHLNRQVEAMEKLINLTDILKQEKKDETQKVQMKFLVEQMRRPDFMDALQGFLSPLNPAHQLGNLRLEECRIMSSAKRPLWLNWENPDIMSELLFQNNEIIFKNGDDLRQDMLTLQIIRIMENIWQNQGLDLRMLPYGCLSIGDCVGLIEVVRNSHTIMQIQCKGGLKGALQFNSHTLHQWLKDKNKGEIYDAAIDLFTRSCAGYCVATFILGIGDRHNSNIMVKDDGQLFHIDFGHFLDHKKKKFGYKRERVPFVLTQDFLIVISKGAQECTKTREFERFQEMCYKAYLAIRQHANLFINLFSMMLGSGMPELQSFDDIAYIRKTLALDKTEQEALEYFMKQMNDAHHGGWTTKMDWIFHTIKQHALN
Chain of Receptor-type tyrosine-protein kinase FLT3 (Homo sapiens) (P36888 whole entry): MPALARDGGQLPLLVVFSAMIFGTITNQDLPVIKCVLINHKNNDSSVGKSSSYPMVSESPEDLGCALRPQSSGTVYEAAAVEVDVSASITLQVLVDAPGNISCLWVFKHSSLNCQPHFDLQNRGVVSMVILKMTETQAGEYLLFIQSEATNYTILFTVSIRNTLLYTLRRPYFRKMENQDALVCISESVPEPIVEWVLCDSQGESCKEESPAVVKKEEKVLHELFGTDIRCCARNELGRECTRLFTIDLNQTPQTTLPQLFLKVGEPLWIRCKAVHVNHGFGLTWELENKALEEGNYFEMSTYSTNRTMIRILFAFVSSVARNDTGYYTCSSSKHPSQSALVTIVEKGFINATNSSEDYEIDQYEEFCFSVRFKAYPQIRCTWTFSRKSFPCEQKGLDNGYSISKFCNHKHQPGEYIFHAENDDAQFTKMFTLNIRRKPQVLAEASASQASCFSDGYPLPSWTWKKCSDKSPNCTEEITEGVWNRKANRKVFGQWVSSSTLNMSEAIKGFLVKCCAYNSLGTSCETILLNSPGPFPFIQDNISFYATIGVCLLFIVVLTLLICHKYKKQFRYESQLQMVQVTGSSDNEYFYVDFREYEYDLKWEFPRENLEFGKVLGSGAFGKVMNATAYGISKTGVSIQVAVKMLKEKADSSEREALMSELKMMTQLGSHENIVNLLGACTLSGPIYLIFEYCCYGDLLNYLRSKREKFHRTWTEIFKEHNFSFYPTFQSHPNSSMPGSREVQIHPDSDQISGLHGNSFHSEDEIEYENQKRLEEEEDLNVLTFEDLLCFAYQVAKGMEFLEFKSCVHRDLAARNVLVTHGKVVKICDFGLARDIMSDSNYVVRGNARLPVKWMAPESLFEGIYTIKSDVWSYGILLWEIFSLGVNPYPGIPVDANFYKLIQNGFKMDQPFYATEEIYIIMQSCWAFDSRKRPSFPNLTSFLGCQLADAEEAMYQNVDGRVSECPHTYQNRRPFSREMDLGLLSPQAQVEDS

In the case of `Nc1nc2cc(-c3ccc4ncc(N5C[C@@H]6OCCO[C@@H]6C5)nc4c3)ccc2o1`, the distribution volume (Vd) in data set [1] was found to be 5.2 L/kg. Moreover, the inhibition entry in data set [2] was “Active”. The IC50 in data set [3] stood at 601 nM; in data set [4], 2.5 nM; in data set [5] it was 54 µM. The Activity result in the data set with HCT-116 is “Dose-Dependent Effect”.

As usually defined, the Vd is the apparent volume that relates the amount in the body to the concentration in plasma or blood. Read a low Vd as confinement near the circulation. For orientation: IC50 means the concentration that gives 50% inhibition.
